# Reference: article PMC10380584, “Functional Characterization of Pheromone Receptors in the Beet Webworm, Loxostege sticticalis (Lepidoptera: Pyralidae)” (Insects, 2023)
# System: T1, LstiPR2/LstiORco
# T1 construct: full-length LstiPR2 (ORF 1263 bp, printed 421 aa) co-expressed with LstiORco (cRNA 1:1) in Xenopus laevis oocytes, pT7Ts vector; cloned from male antennae; with Odorant receptor coreceptor
# Experiment: two-electrode voltage clamp, Xenopus oocytes
# Type: cell-based, Loxostege sticticalis
# Settings: agonist; co-expressed with LstiORco; holding potential -80 mV; Ringer's buffer pH 7.6
# Source text: two-electrode voltage clamp, Xenopus oocytes on LstiPR2/LstiORco | LstiPR2/LstiORco was sensitive to E11-14:OAc
structure (smiles),measurement,value
"CC/C=C/CCCCCCCCCCOC(C)=O [E11-14:OAc, (E)-11-tetradecenyl acetate]",EC50,12.5 µM
